In publication PMC9964680, “Novel TDP1 Inhibitors: Disubstituted Thiazolidine-2,4-Diones Containing Monoterpene Moieties” (International Journal of Molecular Sciences, 2023):

Target: T1, Human recombinant TDP1 (Homo sapiens, UniProt Q9NUW8)
T1 construct: made in house
T1 sequence (Q9NUW8 whole entry): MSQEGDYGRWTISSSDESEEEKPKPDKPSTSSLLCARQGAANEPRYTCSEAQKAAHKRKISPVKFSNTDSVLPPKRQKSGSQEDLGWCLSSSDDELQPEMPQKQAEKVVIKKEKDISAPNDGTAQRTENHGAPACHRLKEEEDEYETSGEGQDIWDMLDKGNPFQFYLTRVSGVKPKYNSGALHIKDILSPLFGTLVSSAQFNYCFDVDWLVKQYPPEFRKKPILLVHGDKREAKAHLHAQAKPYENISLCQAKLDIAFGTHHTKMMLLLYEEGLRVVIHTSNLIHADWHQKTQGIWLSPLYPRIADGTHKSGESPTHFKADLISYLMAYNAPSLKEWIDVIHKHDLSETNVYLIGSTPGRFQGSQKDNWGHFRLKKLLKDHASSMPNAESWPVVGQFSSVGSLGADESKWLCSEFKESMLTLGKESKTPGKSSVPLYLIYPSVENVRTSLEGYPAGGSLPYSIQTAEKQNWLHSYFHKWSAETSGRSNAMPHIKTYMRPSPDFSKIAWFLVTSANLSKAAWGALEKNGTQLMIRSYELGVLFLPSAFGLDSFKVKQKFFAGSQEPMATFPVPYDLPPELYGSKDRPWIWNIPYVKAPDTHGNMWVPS
Experiment: Real-time oligonucleotide biosensor assay of TDP1 activity
Type: biochemical
Details: 1.5 nM TDP1, 50 nM biosensor, 26 °C, at least three experiments
Method: The inhibiting activity of the compounds against TDP1 was investigated using a real-time oligonucleotide biosensor assay.
The biosensor (5′-[FAM] AAC GTC AGGGTC TTC C [BHQ]-3′) was synthesized in the Laboratory of Nucleic Acid Chemistry at the Institute of Chemical Biology and Fundamental Medicine (Novosibirsk, Russia) and was used for TDP1 enzyme activity real-time fluorescence detection. The reaction mixture (200 µL) contained a TDP1 reaction buffer (50 mM Tris-HCl, pH 8.0, 50 mM NaCl, and 7 mM β-mercaptoethanol), 50 nM oligonucleotide, varied concentrations of the tested compounds, and purified TDP1 in a final concentration of 1.5 nM. The recombinant TDP1 was purified to homogeneity by chromatography on Ni-chelating resin and phosphocellulose P11, as described, using plasmid pET 16B-TDP1, kindly provided by Dr. K.W. Caldecott (University of Sussex, United Kingdom).
The reaction mixtures were incubated at a constant temperature of 26 °C in a POLARstar OPTIMA fluorimeter (BMG LABTECH, GmbH, Ortenberg, Germany). Fluorescence intensity was measured (Ex485/Em520 nm) every 1 min for 10 min. The average values of the half maximal inhibitory concentration (IC50) were determined using a six-point concentration response curve and calculated using MARS Data Analysis 2.0 (BMG LABTECH). The 50% inhibitory concentration (IC50) was defined as the concentration of the compound that inhibited 50% of the enzyme activity, when compared to the untreated controls. At least three independent experiments were carried out to obtain the IC50 values.
For `CC(C)=CCC/C(C)=C/CN1C(=O)S/C(=C\c2ccc(Br)s2)C1=O` [Compound 20b, (Z)-5-((5-bromothiophen-2-yl)methylene)-3-((E)-3,7-dimethylocta-2,6-dienyl)thiazolidine-2,4-dione], the “TDP1 inhibitory activity IC50” value was “did not show affinity for the enzyme”.
With `CC1(C)[C@H]2CC=C(CCN3C(=O)S/C(=C\c4cc(Br)cs4)C3=O)[C@@H]1C2` [Compound 21d, (Z)-5-((4-bromothiophen-2-yl)methylene)-3-(2-((1R,5S)-6,6-dimethylbicyclo[3.1.1]hept-2-en-2-yl)ethyl)thiazolidine-2,4-dione] the “TDP1 inhibitory activity IC50” value was “submicromolar”.
In the case of `CC(C)=CCC/C(C)=C/CN1C(=O)S/C(=C\c2cc(Br)cs2)C1=O` [Compound 20d, (Z)-5-((4-bromothiophen-2-yl)methylene)-3-((E)-3,7-dimethylocta-2,6-dienyl)thiazolidine-2,4-dione], the “TDP1 inhibitory activity IC50” value is reported as “submicromolar”.

Same assay, conditions: 1.5 nM TDP1, 50 nM biosensor, 26 °C, at least three experiments; read-out: TDP1 inhibitory activity IC50
With `CC1=CCC(CC=C2SC(=O)N(CCC3=CCC4CC3C4(C)C)C2=O)C1(C)C` [Compound 21g, (Z)-3-(2-(1R,5S)-6,6-dimethylbicyclo[3.1.1]hept-2-en-2-yl)ethyl)-5-(2-((S)-2,2,3-trimethylcyclopent-3-enyl)ethylidene)thiazolidine-2,4-dione] the IC50 was 2.4 ± 0.1 µM.
With `Cc1ccc(/C=C2\SC(=O)NC2=O)s1` [Compound 18e, (Z)-5-((5-methylthiophen-2-yl)methylene)thiazolidine-2,4-dione] the IC50 was over 100 µM.
`CC1(C)[C@H]2CC=C(CCN3C(=O)S/C(=C\c4cccs4)C3=O)[C@@H]1C2` [Compound 21c, (Z)-3-(2-((1R,5S)-6,6-dimethylbicyclo[3.1.1]hept-2-en-2-yl)ethyl)-5-(thiophen-2-ylmethylene)thiazolidine-2,4-dione] gave an IC50 of over 100 µM.
Compound `CC(C)=CCC/C(C)=C/CN1C(=O)S/C(=C\C[C@@H]2CC=C(C)C2(C)C)C1=O` [Compound 20g] has an IC50 of 4.1 ± 0.1 µM.
`CC1(C)[C@H]2CC=C(CCN3C(=O)S/C(=C\c4ccc(Br)cc4)C3=O)[C@@H]1C2` [Compound 21f, (Z)-5-(4-bromobenzylidene)-3-(2-((1R,5S)-6,6-dimethylbicyclo[3.1.1]hept-2-en-2-yl)ethyl)thiazolidine-2,4-dione] gave an IC50 of over 100 µM.
Work on `O=C1S/C(=C\c2cc(Br)cs2)C(=O)N1Cc1ccccc1` [Compound 19d, (Z)-3-Benzyl-5-((4-bromothiophen-2-yl)methylene)thiazolidine-2,4-dione] yielded an IC50 of over 100 µM.
For `CC(C)=CCC/C(C)=C/CN1C(=O)S/C(=C\c2ccco2)C1=O` [Compound 20a, (Z)-3-((E)-3,7-dimethylocta-2,6-dienyl)-5-(furan-2-ylmethylene)thiazolidine-2,4-dione], the IC50 was 3.4 ± 0.1 µM.
For `O=C1NC(=O)/C(=C/c2cccs2)S1` [Compound 18c, (Z)-5-(thiophen-2-ylmethylene)thiazolidine-2,4-dione], the IC50 was over 100 µM.
With `O=C1NC(=O)/C(=C/c2ccc(Br)cc2)S1` [Compound 18f, (Z)-5-(4-bromobenzylidene)thiazolidine-2,4-dione] the IC50 was over 100 µM.
In the case of `O=C1NC(=O)/C(=C/c2ccco2)S1` [Compound 18a, (Z)-5-(furan-2-ylmethylene)thiazolidine-2,4-dione], the IC50 is reported as over 100 µM.
With `O=C1NC(=O)/C(=C/c2ccc(Br)s2)S1` [Compound 18b, (Z)-5-((5-bromothiophen-2-yl)methylene)thiazolidine-2,4-dione] the IC50 was 1.1 ± 0.2 µM.
Work on `O=C1S/C(=C\c2ccc(Br)cc2)C(=O)N1Cc1ccccc1` [Compound 19f, (Z)3-benzyl-5-(4-bromobenzylidene)thiazolidine-2,4-dione] yielded an IC50 of 1.6 ± 0.3 µM.
`O=C1NC(=O)/C(=C/c2cc(Br)cs2)S1` [Compound 18d, (Z)-5-((4-bromothiophen-2-yl)methylene)thiazolidine-2,4-dione] showed an IC50 of over 100 µM.
Work on `CC1=CC[C@@H](C/C=C2\SC(=O)N(Cc3ccccc3)C2=O)C1(C)C` [Compound 19g, (S,Z)-3-Benzyl-5-(2-(2,2,3-trimethylcyclopent-3-enyl)ethylidene)thiazolidine-2,4-dione] yielded an IC50 of 2.4 ± 1.1 µM.
Work on `CC(C)=CCC/C(C)=C/CN1C(=O)S/C(=C\c2ccc(C)s2)C1=O` [Compound 20e, (Z)-3-((E)-3,7-dimethylocta-2,6-dienyl)-5-((5-methylthiophen-2-yl)methylene)-thiazolidine-2,4-dione] yielded an IC50 of 2.9 ± 0.1 µM.
Compound `Cc1ccc(/C=C2\SC(=O)N(Cc3ccccc3)C2=O)s1` [Compound 19e, (Z)-3-Benzyl-5-((5-methylthiophen-2-yl)methylene)thiazolidine-2,4-dione] has an IC50 of over 100 µM.
Work on `CC(C)=CCC/C(C)=C/CN1C(=O)S/C(=C\c2ccc(Br)s2)C1=O` [Compound 20b, (Z)-5-((5-bromothiophen-2-yl)methylene)-3-((E)-3,7-dimethylocta-2,6-dienyl)thiazolidine-2,4-dione] yielded an IC50 of over 100 µM.
Work on `O=C1S/C(=C\c2cccs2)C(=O)N1Cc1ccccc1` [Compound 19c, (Z)-3-Benzyl-5-(thiophen-2-ylmethylene)thiazolidine-2,4-dione] yielded an IC50 of over 100 µM.
`CC1(C)[C@H]2CC=C(CCN3C(=O)S/C(=C\c4cc(Br)cs4)C3=O)[C@@H]1C2` [Compound 21d, (Z)-5-((4-bromothiophen-2-yl)methylene)-3-(2-((1R,5S)-6,6-dimethylbicyclo[3.1.1]hept-2-en-2-yl)ethyl)thiazolidine-2,4-dione] gave an IC50 of 0.55 ± 0.07 µM.
`CC(C)=CCC/C(C)=C/CN1C(=O)S/C(=C\c2cccs2)C1=O` [Compound 20c, (Z)-3-((E)-3,7-dimethylocta-2,6-dienyl)-5-(thiophen-2-ylmethylene)thiazolidine-2,4-dione] showed an IC50 of over 100 µM.
Work on `CC(C)=CCC/C(C)=C/CN1C(=O)S/C(=C\c2cc(Br)cs2)C1=O` [Compound 20d, (Z)-5-((4-bromothiophen-2-yl)methylene)-3-((E)-3,7-dimethylocta-2,6-dienyl)thiazolidine-2,4-dione] yielded an IC50 of 0.65 ± 0.07 µM.
In the case of `CC1=CC[C@@H](C/C=C2\SC(=O)NC2=O)C1(C)C` [Compound 18g, (S,Z)-5-(2-(2,2,3-Trimethylcyclopent-3-enyl)ethylene)thiazolidine-2,4-dione], the IC50 is reported as over 100 µM.
`O=C1S/C(=C\c2ccco2)C(=O)N1Cc1ccccc1` [Compound 19a, (Z)-3-Benzyl-5-(furan-2-ylmethylene)thiazolidine-2,4-dione] showed an IC50 of over 100 µM.
With `Cc1ccc(/C=C2\SC(=O)N(CCC3=CC[C@H]4C[C@@H]3C4(C)C)C2=O)s1` [Compound 21e, (Z)-3-(2-((1R,5S)-6,6-dimethylbicyclo[3.1.1]hept-2-en-2-yl)ethyl)-5-((5-methylthiophen-2-yl)methylene)thiazolidine-2,4-dione] the IC50 was 2.3 ± 0.1 µM.
With `O=C1S/C(=C\c2ccc(Br)s2)C(=O)N1Cc1ccccc1` [Compound 19b, (Z)-3-Benzyl-5-((5-bromothiophen-2-yl)methylene)thiazolidine-2,4-dione] the IC50 was 1.9 ± 0.3 µM.
`CC(C)=CCC/C(C)=C/CN1C(=O)S/C(=C\c2ccc(Br)cc2)C1=O` [Compound 20f, (Z)-5-(4-bromobenzylidene)-3-((E)-3,7-dimethylocta-2,6-dienyl)thiazolidine-2,4-dione] gave an IC50 of over 100 µM.

Test system: TDP1
Experiment: not given
Details: Figure 1, berberines; cited from earlier work
In the case of `CCCS(=O)(=O)Oc1c(OC)cc(Br)c2c1CN1CCc3cc4c(cc3C1C2)OCO4` (stereo not drawn) [Compound 2], the IC50 is given as 2.9 µM.

Same assay, conditions: Figure 1, coumarins; cited from earlier work
For `COc1ccc(-c2cc(=O)oc3cc(OCCC4=CCC5CC4C5(C)C)ccc23)cc1` (stereo not drawn) [Compound 3], the IC50 is listed as 0.91 µM.

Same assay, conditions: Figure 1, isoquinolines; cited from earlier work
In the case of `COc1cccc2c1-c1c(c3ccc([N+](=O)[O-])cc3c(=O)n1CCCN)C2=O` [Compound 5], the IC50 is listed as 5.5 µM.

Same assay, conditions: Figure 1, resin acid derivatives; cited from earlier work
For `CC(C)c1ccc2c(c1)CC[C@H]1[C@](C)(CNC(=O)CC34CC5CC(CC(C5)C3)C4)CCC[C@]21C` [Compound 7], the IC50 is given as 0.19 µM.

Same assay, conditions: Figure 1, steroids; cited from earlier work
For `CO[C@@H]1CC[C@]2(C)C3C[C@H](OC)[C@@]4(C)C(CC[C@@H]4[C@H](C)CCC(=O)Nc4ccc(Br)cc4)[C@@H]3CC[C@@H]2C1` (stereo partly drawn) [Compound 4], the IC50 is listed as 0.27 µM.

Same assay, conditions: Figure 1, terpenoadamantanes; cited from earlier work
In the case of `CC(C)=CCC/C(C)=C/CSc1n[nH]c(C23CC4CC(CC(C4)C2)C3)n1` [Compound 8], the IC50 is listed as 5.2 µM.

Same assay, conditions: Figure 1, thiazolidines; cited from earlier work
In the case of `O=C1NC(=S)/C(=C/c2ccc(O)c(O)c2O)S1` [Compound 6], the IC50 is given as 0.87 µM.
